Among the data in a melting point compilation (Tetko et al.) are melting point values, retold here.

`O=C(O)Cc1ccc(C(F)(F)F)cc1[N+](=O)[O-]` yielded a melting point of 145 to 147 °C.
As to `N#Cc1c[nH]c(C(=O)O)c1`, the melting point lay within 256 to 258 °C.
Under `Cc1ccc(Oc2ccc3[nH]cccc-3c2=N)c(Br)c1` stands 259 to 261 °C; under `NCc1ccc(N2CCCC(C(N)=O)C2)cc1` (stereo not given), 169 to 171 °C.
Consider `CCNC(C(=O)O)c1ccc(F)c(F)c1` (stereo not given), for which the melting point lay within 277 to 279 °C.
Under `CCC(=O)NC(C)C(=O)O` (stereo not given) stands 89 to 91 °C.
`CC(Cl)C(=O)N(C)C1CCS(=O)(=O)C1` (stereo not given) registered a melting point of 106 to 108 °C.
Take `NCc1cccc(NC(=O)C2CCC2)c1`: the melting point is 61 to 63 °C.
In turn, `N#Cc1cccc(S(=O)(=O)n2ccc(N)n2)c1` yielded a melting point of 183 to 185 °C.
Consider `CC(=O)Nc1nc(CCl)cs1`, for which the melting point was in the range of 159 to 161 °C.
Under `COc1ccnc(Cl)n1` stands 57 to 58 °C; under `N#Cc1cccc(NN)c1`, 104 to 106 °C; under `COc1ccc(Cl)c(N=C=O)c1`, 38 to 40 °C.
`Cc1nn(C)c(C)c1CC(=O)N1CCC(C(=O)O)CC1` returned a melting point of 167 to 169 °C.
Turning to `C#CCN1C(=O)C(=O)c2cc(Br)ccc21`, the melting point was 164 to 166 °C.
With `C/C(=N\O)c1scnc1C`, the melting point was in the range of 144 to 146 °C.
For `CC(Cl)C(=O)Nc1ccc(Cl)cn1` (stereo not given), the melting point lay within 88 to 90 °C.
`O=C(O)c1cc(Cl)cc(Cl)c1OC(F)F` displayed a melting point of 128 to 132 °C.
Molecule `N#Cc1cc([N+](=O)[O-])ccc1O` gave a melting point of 196 to 198 °C.
The molecule `Fc1ccc(-c2nnc(Cl)c3ccccc23)cc1F` displayed a melting point of 164 to 166 °C.
The molecule `O=C(c1cccnc1)c1c[nH]c2ccccc12` returned a melting point of 212 to 214 °C.
Molecule `Cc1ccc(N(C(=O)CCl)C2C=CS(=O)(=O)C2)cc1C` (stereo not given) had a melting point of 136 to 138 °C.
Under `CCOC(=O)c1nc2c(s1)NCCCC2` stands 144 to 146 °C; under `CC(C)C(Oc1ccc(F)cc1F)C(=O)O` (stereo not given), 67 to 69 °C.
As for `O=C(O)CCCNc1nc2ccccc2s1`, the melting point fell in the range of 110 to 112 °C.
In turn, `Cc1cc(F)ccc1-n1cc(O)c(C(=O)O)n1` had a melting point of 149 to 151 °C.
The molecule `Cc1cc(C(=O)O)ccc1N1CCNC1=O` returned a melting point of 279 to 281 °C.
Take `COc1ccc(C=O)cc1OCC1CC1`: the melting point was 68 to 70 °C.
In turn, `O=C(O)c1c[nH]c(C(=O)N2CCCC2)c1` had a melting point of 264 to 266 °C.
Consider `O=Cc1cn(Cc2cccnc2)nn1`, for which the melting point lay in the range of 97 to 99 °C.
In the case of `Cc1cc(C(=O)O)c2c(C3CC3)noc2n1`, the melting point was 201 to 203 °C.
With `O=C(O)c1cc(S(=O)(=O)Cl)cc(Br)c1Cl`, the melting point was in the range of 160 to 162 °C.
`Nc1nc(Cl)c(Cl)cc1[N+](=O)[O-]` displayed a melting point of 126 to 128 °C.
Under `COc1ccc(NC(=O)c2ccc(CCl)cc2)cc1` stands 189 to 191 °C; under `O=S(=O)(c1ccccc1O)C(F)(F)F`, 47 to 49 °C; under `Cc1oc(C(=O)O)cc1S(=O)(=O)N1CCCC1`, 219 to 221 °C.
On to `O=C(C1=CNCCC1)c1ccccc1`, for which the melting point was in the range of 90 to 92 °C.
Regarding `Nc1c(O)cccc1F`, the melting point is 121 to 123 °C.
Turning to `COC(=O)CCNc1ccc(F)cc1[N+](=O)[O-]`, the melting point is 76 to 78 °C.
In turn, `CN(C)C(=O)c1ccc(Cl)nc1` returned a melting point of 67 to 69 °C.
Molecule `CSCCC(NC(=O)c1ccc(Cl)cc1Cl)C(=O)O` (stereo not given) came in with a melting point of 79 to 81 °C.
In turn, `c1cc2[nH]ncc2cc1NC1CN2CCC1CC2` (stereo not given) registered a melting point of 192 to 194 °C.
In turn, `CCc1cc2c(C)cc(=O)oc2cc1O` registered a melting point of 216 to 218 °C.
The molecule `NC(=O)c1ccc(NCc2ccccc2)c(N)c1` yielded a melting point of 169 to 171 °C.
The molecule `Cc1c(C(=O)O)cnn1Cc1ccccc1` gave a melting point of 172 to 174 °C.
On to `CC(=O)c1ccc(-c2ccc(C(F)(F)F)cc2)s1`, for which the melting point is 127 to 129 °C.
Under `Nc1cccc(-c2nnc3n2CCCCC3)c1` stands 200 to 202 °C; under `O=c1[nH]c(S)nc2scc(-c3ccc(F)cc3)c12`, 200 to 202 °C; under `CC(=O)OCC(=O)[C@@]1(O)CC[C@H]2[C@@H]3CCC4=CC(=O)CC[C@]4(C)[C@H]3[C@@H](O)C[C@@]21C`, 219 to 221 °C.
On to `Cc1c(N)cccc1C(=O)N1CCCC1`, for which the melting point is 162 to 164 °C.
Under `O=C1CC(c2ccc(Cl)cc2)CC(=O)N1` stands 152 to 154 °C.
`O=C(O)c1ccccc1Nc1ccc(SC(F)F)cc1` returned a melting point of 116 to 118 °C.
`Nc1ccnn1Cc1ccc(F)cc1` registered a melting point of 59 to 61 °C.
`Nc1cc(=O)[nH]n1-c1ccccc1` showed a melting point of 109 to 111 °C.
`Cn1c(-c2ccccc2)c(C(=O)CC#N)c2ccccc21` gave a melting point of 155 to 157 °C.
`Nc1nnc(Cc2ccc(F)cc2)[nH]1` showed a melting point of 197 to 199 °C.
Molecule `O=C1CCOc2c(Cl)ccc(Cl)c21` registered a melting point of 67 to 69 °C.
Molecule `O=C(NC1CC1)c1ccc(Cl)c([N+](=O)[O-])c1` showed a melting point of 130 to 132 °C.
In the case of `CS(=O)(=O)Cc1ccc(F)cc1CN`, the melting point lay in the range of 77 to 79 °C.
Take `CCNC(=O)COc1cccc(CN)c1`: the melting point was in the range of 62 to 64 °C.
Molecule `Nc1c(-c2ccccn2)nc2ccccn12` yielded a melting point of 199 to 201 °C.
Turning to `O=[N+]([O-])c1ccccc1C(O)c1cccnc1` (stereo not given), the melting point is 102 to 104 °C.
Under `Cc1cc(Br)cc2cc(C(=O)O)oc12` stands 222 to 224 °C; under `Nc1ccc(S(=O)(=O)N2CCCC2)cc1`, 164 to 166 °C.
Turning to `O=C1CCc2cc(Br)ccc2N1`, the melting point lay in the range of 169 to 171 °C.
Under `Nc1ccncc1C(=O)C(F)(F)F` stands 170 to 172 °C; under `O=C(Nc1ccccc1C(F)(F)F)OCC(F)(F)F`, 68 to 70 °C.
Molecule `O=C(O)C1CSCN1C(=O)C1CCC1` (stereo not given) gave a melting point of 115 to 117 °C.
As for `CCOC(=O)C(=O)CC(=O)c1ccccc1OCC`, the melting point was in the range of 91 to 93 °C.
`CC(C)(C)NC(=O)C1CCCCN1` (stereo not given) showed a melting point of 79 to 81 °C.
Under `NC(=S)CCCc1ccccc1` stands 59 to 61 °C; under `O=C(O)C1CCCN(S(=O)(=O)c2cccs2)C1` (stereo not given), 136 to 138 °C; under `Nc1cccc(-n2c(O)c(O)n(C3CC3)c2=O)c1`, 164 to 166 °C.
On to `Nc1ccc(OCCO)cc1C(F)(F)F`, for which the melting point lay in the range of 73 to 75 °C.
In turn, `Nc1ccc(S(=O)(=O)N2CCCCC2)cn1` gave a melting point of 171 to 173 °C.
In turn, `Cn1ncc(C(=O)O)c1-c1ccccc1` displayed a melting point of 213 to 215 °C.
Regarding `Clc1nnc(Cl)c(Cl)n1`, the melting point was 56 to 58 °C.
Regarding `NC(=O)c1ccc(S(=O)(=O)Cl)cc1`, the melting point lay within 188 to 190 °C.
Turning to `COC(=O)C1Nc2ccccc2S(=O)(=O)N1` (stereo not given), the melting point is 171 to 173 °C.
The molecule `Cc1ccc2c(O)c(C(=O)O)cnc2n1` came in with a melting point of 279 to 281 °C.
Consider `C1CC(C2CCOCC2)CCN1`, for which the melting point lay within 52 to 54 °C.
`CC(=O)NC(C)c1ccc(C(=O)CCl)cc1` (stereo not given) registered a melting point of 152 to 156 °C.
Consider `NS(=O)(=O)c1cc(C(=O)O)cs1`, for which the melting point lay within 194 to 196 °C.
As to `Cn1c(N)nccc1=O`, the melting point is 257 to 259 °C.
As for `O=C(O)CCc1ccccc1OC(F)(F)F`, the melting point lay within 49 to 51 °C.
Regarding `O=C(O)Cc1csc(-c2cccc(Br)c2)n1`, the melting point lay within 106 to 110 °C.
Consider `Cc1ccc(-c2cnnc(N)n2)s1`, for which the melting point fell in the range of 300 to 302 °C.
With `O=C(Cc1ccc(Br)cc1)C(F)(F)F`, the melting point fell in the range of 38 to 40 °C.
Under `O=[N+]([O-])c1cc(S(=O)(=O)Cl)c(Br)cc1F` stands 80 to 82 °C.
`O=C(O)C1CCN(Cc2ccc(Cl)s2)CC1` yielded a melting point of 173 to 175 °C.
Under `N#Cc1ccc(S(N)(=O)=O)cc1Cl` stands 157 to 159 °C; under `CCOC(=O)C(=O)C=Cc1ccsc1`, 53 to 55 °C.
Take `O=C(O)CNC1CCCC1`: the melting point is 210 to 212 °C.
Turning to `Cc1nc(N)nc(C2CC2)n1`, the melting point lay in the range of 114 to 116 °C.
In turn, `COC(=O)c1c(C)n(C)c2ccc(O)cc12` registered a melting point of 223 to 225 °C.
Regarding `Cc1nn(C2CCCCC2)c(C)c1N`, the melting point lay in the range of 69 to 71 °C.
Molecule `Cc1cc(C)c(-c2csc(N)n2)cc1C` displayed a melting point of 252 to 254 °C.
Consider `CC(C)(C)OC(=O)N1CCc2ccc(N)cc2C1`, for which the melting point lay within 93 to 95 °C.
Under `CCCCc1ccc(NS(=O)(=O)c2ccc(C)c(C(=O)O)c2)cc1` stands 192 to 194 °C; under `CCOCCNC(N)=O`, 60 to 62 °C; under `O=C(O)C1CC1c1c(F)cccc1Cl` (stereo not given), 109 to 111 °C.
In turn, `O=C(O)Cc1ccc(-n2cnnn2)cc1` came in with a melting point of 171 to 173 °C.
`O=Cc1csc(-c2cccs2)n1` displayed a melting point of 80 to 82 °C.
Molecule `Fc1ccccc1-c1nnc(CCl)o1` had a melting point of 86 to 88 °C.
`O=C(NC1CC=CCC1)C(F)(F)F` (stereo not given): the melting point was 58 to 60 °C.
For the molecule `CNC(=O)CC(N)=NO`, the melting point fell in the range of 119 to 121 °C.
As to `CCOC(OCC)c1cc(-c2cccc(F)c2)[nH]n1`, the melting point was in the range of 82 to 84 °C.
Under `N#Cc1c(NC(=O)CCl)sc2c1CCC2` stands 176 to 178 °C.
In the case of `O=C(O)c1nn(-c2ccc(F)cc2)ccc1=O`, the melting point is 240 to 242 °C.
Under `Nc1ccc(N2CCCC2=O)c(Cl)c1` stands 184 to 186 °C.
As for `Nc1cc(S(=O)(=O)NC2CC2)ccc1F`, the melting point was in the range of 101 to 103 °C.
Turning to `CC(C(=O)O)N(C)c1nccn2cnnc12` (stereo not given), the melting point was in the range of 153 to 155 °C.
In turn, `Cn1ncc(C(=O)O)c1N` came in with a melting point of 139 to 141 °C.
For the molecule `CN(C)CC(C)(C)CNC(N)=S`, the melting point lay within 121 to 123 °C.
The molecule `CN(C)Cc1ccc(-c2ccccc2C#N)cc1` yielded a melting point of 44 to 46 °C.
Consider `Cc1nc(CSCC(=O)O)cs1`, for which the melting point was 155 to 157 °C.
In the case of `Cc1nn(-c2ccccc2)c(C(F)F)c1C(=O)O`, the melting point was in the range of 206 to 208 °C.
Regarding `CC(=O)c1c(C)[nH]c(N=Nc2cccc(C(=O)O)c2)c1C`, the melting point lay in the range of 203 to 205 °C.
Under `Cc1nc(-c2cnn(C)c2)sc1C(=O)O` stands 230 to 232 °C.
For the molecule `N#Cc1ccc(N2CCCC(Br)C2=O)cc1` (stereo not given), the melting point lay in the range of 124 to 126 °C.

A word on the melting point: it is the temperature, or range, at which the solid turns liquid.
